Patent US4935425A, “4H-quinolizin-4-ones for treatment of diseases associated with immunoglobulin e-antibody formation” (Kissei Pharmaceutical Co., Ltd., priority 1987, dated 1990)

Experiments:
IgE = assay: Determination of IgE produced in in vitro culture of spleen cells from DNP-As immunized mice (ELISA); assay type: cell-based, BALB/c mice; conditions: Mus musculus, 96 h, 4 days culture, 37° C.; for inhibition at 20 µg/mL: 20 μg/ml; for inhibition at 10 µg/mL: 10 μg/ml
Method: (§1) And the inhibitory activities of the quinolizinone derivative of formula (I) are further confirmed by the determination of serum concentrations of Igs in BALB/c mice which are immunized by DNP-As according to a procedure described in Immunology, Vol 21, pp 11-12, 1971.
(§2) BALB/c mice were immunized intraperitoneally with 5 μg of DNP-As adsorbed on 4 mg aluminum hydroxide gel Four weeks after the immunization,the spleens were excised from the mice and 5×10^7 spleen cells were transferred intravenously into the recipient mice which had been exposed to 600 rad of X-ray irradiation. Immediately after cell transfer, the recipients were then immunized intraperitoneally with 5 μg of DNP-As adsorbed on 4 mg aluminum hydroxide gel to induce adoptive secondary immune response. Further 4 weeks after the immunization of recipients, the spleens were excised from them and the spleen cell suspensions containing 5×10^6 cells/ml were cultured with or without a compound to be tested in 96-well micro-titer plates at 37° C. for 4 days. IgE and IgG secreted into the culture supernatant was each determined correspondingly by ELISA and the inhibitory effect was calculated according to the following equation. [formula]

IgG = assay: Determination of IgG (Igs other than IgE) produced in in vitro culture of spleen cells from DNP-As immunized mice (ELISA); assay type: cell-based, BALB/c mice; conditions: Mus musculus, 96 h, 4 days culture, 37° C.; for inhibition at 20 µg/mL: 20 μg/ml; for inhibition at 10 µg/mL: 10 μg/ml
Method: as §1, §2

## CCOC(=O)c1c(NCc2cnc(C)cn2)c(C#N)c(=O)n2ccccc12 [S-16, 3-Cyano-1-ethoxycarbonyl-2-(5-methylpyrazinyl)-methylamino-4H-quinolizin-4-one]
IgE
  inhibition at 20 µg/mL: 68%
IgG
  inhibition at 20 µg/mL: 7%

## CCOC(=O)c1c(NCc2ccccn2)c(C#N)c(=O)n2ccccc12 [S-1, 3-Cyano-1-ethoxycarbonyl-2-(2-pyridylmethylamino)-4H-quinolizin-4-one]
IgE
  inhibition at 20 µg/mL: 60%
IgG
  inhibition at 20 µg/mL: 13%

## CCOC(=O)c1c(NCc2cnccn2)c(C#N)c(=O)n2ccccc12 [S-14, 3-Cyano-1-ethoxycarbonyl-2-pyrazinylmethylamino-4H-quinolizin-4-one]
IgE
  inhibition at 10 µg/mL: 72%
IgG
  inhibition at 10 µg/mL: 1%

## CCOC(=O)c1c(NCc2nccnc2C)c(C#N)c(=O)n2ccccc12 [S-15, 3-Cyano-1-ethoxycarbonyl-2-(3-methylpyrazinyl)methylamino-4H-quinolizin-4-one]
IgE
  inhibition at 10 µg/mL: 73%
IgG
  inhibition at 10 µg/mL: 3%

## CCOC(=O)c1c(NCc2cccnc2)c(C#N)c(=O)n2ccccc12 [S-6, 3-Cyano-1-ethoxycarbonyl-2-(3-pyridylmethylamino)-4H-quinolizin-4-one]
IgE
  inhibition at 20 µg/mL: 68%
IgG
  inhibition at 20 µg/mL: 16%

## CCOC(=O)c1c(NCc2cncc(C)n2)c(C#N)c(=O)n2ccccc12 [S-17, 3-Cyano-1-ethoxycarbonyl-2-(6-methylpyrazinyl)-methylamino-4H-quinolizin-4-one]
IgE
  inhibition at 10 µg/mL: 68%
IgG
  inhibition at 10 µg/mL: 12%
